Laboratory results taken from paper PMC9021288 (Nature Communications, 2022).
Where “and” joins values, the source holds several entries; their conditions need not be identical. Equal values may be shown once.

Legend:
rat primary hepatocytes = test: Hepatocyte stability, rat; type: in vitro ADME; conditions: 60 min
[1] = Metabolite identification in dog plasma and urine; conditions: in vivo
[2] = test system: cryopreserved human hepatocytes; test: MTT cytotoxicity in induction-study hepatocytes; type: cell-based; conditions: up to 500 µM, 72 h, one donor
panel of human enzymes = test: Off-target enzyme and uptake assays (Eurofins CEREP); type: biochemical; conditions: for % Inhibition of Control Values: Rep1, Rep2, Mean
hERG channel = target: T1, hERG channel (Homo sapiens, UniProt Q12809); test: Automated patch clamp (Qpatch); type: cell-based
T1 construct: Metrion Biosciences
T1 sequence (Q12809 whole entry): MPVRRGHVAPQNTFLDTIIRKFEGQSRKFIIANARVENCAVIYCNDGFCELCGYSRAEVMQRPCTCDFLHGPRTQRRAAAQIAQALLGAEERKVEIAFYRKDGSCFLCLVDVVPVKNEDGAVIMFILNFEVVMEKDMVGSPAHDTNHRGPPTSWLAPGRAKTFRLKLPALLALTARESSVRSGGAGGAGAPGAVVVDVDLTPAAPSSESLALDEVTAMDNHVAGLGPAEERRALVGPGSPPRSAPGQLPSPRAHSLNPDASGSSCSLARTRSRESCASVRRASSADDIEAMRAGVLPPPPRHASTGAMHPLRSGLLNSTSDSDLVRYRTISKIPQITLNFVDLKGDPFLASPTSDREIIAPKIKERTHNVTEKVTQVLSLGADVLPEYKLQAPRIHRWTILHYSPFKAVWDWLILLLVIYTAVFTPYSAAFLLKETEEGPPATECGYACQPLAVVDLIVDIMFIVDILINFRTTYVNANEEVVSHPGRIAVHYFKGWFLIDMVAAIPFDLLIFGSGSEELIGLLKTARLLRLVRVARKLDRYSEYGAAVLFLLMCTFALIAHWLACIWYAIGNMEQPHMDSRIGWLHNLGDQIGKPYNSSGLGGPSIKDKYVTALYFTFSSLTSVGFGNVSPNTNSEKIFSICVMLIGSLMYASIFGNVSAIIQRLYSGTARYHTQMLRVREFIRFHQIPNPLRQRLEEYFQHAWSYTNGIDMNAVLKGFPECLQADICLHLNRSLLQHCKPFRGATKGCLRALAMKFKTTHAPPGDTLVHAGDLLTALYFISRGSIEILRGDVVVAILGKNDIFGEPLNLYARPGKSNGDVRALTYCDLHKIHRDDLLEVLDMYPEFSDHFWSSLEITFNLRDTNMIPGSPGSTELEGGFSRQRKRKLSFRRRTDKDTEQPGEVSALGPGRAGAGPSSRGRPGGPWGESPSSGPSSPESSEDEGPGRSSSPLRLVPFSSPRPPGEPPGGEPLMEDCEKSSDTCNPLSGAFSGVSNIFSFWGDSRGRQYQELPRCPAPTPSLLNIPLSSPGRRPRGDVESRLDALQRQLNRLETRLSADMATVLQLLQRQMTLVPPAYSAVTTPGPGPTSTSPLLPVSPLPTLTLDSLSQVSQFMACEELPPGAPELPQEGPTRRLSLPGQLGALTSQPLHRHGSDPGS
Procedure: (§1) Safety studies were performed by commercial services using their standard protocols. […] Genotoxicity was investigated using the Ames test (Bacterial Reverse Mutation Assay) (Covance Laboratories Ltd, North Yorkshire, England). In vitro mammalian cell micronucleus screening assay was studied in human peripheral blood lymphocytes (BioReliance Corporation, Rockville, USA). Cardiotoxicity was determined against the hERG channel in an automated patch clamp assay using the Qpatch or against the hNaV 1.5, hKV 1.5 and hCaV 1.2 using a manual patch-clamp technique (Metrion Biosciences, Cambridge, UK). Cytotoxicity in human and rat primary hepatocytes was assessed using the CellTiter-Blue assay performed by commercial services (KaLy-Cell). The viability of HepG2 cells was monitored through the addition of 1 mM resazurin. Following 6 h incubation, the relative amount of reduced resazurin was detected in a fluorimeter and compared to the assay controls (vehicle: 0.1% DMSO and positive control: 10 µM puromycin).

HepG2 cells = test: HepG2 viability (resazurin); conditions: for HepG2 viability assay, normalised to controls / HepG2 viability assay, raw signal: replicate 1, replicate 2
Procedure: as §1

[3] = Blood to plasma ratio, human
[4] = Plasma protein binding, human

C[C@@H](CNC(=O)[C@H](O)C(C)(C)CO)NC(=O)c1cc(F)c(F)cc1F [MMV693183]
Compound Remaining (% of 0 min) (rat primary hepatocytes): 89.2% | detected in Plasma [1]: Yes | detected in Urine [1]: Yes | cell viability (MTT) [2]: no change in cell viability | induction, GABA transaminase (panel of human enzymes; 10 µM): 30.7% | inhibition, HDAC11 (panel of human enzymes; 10 µM): 36.9% | inhibition/induction, all other enzyme and uptake assays (panel of human enzymes; 10 µM): less than 25% | % Inhibition of Control Values (panel of human enzymes; ATPase (Na+/K+)): -2.75% and -1.9% and -3.6% | % Inhibition of Control Values (panel of human enzymes; CENP-E (h)): -0.4% and -0.6% and -0.2% | % Inhibition of Control Values (panel of human enzymes; COX1(h)): -4.65% and -5.4% and -3.9% | % Inhibition of Control Values (panel of human enzymes; Eg5 (h)): -5.55% and -2% and -9.1% | % Inhibition of Control Values (panel of human enzymes; GABA transaminase): -30.7% and -29.5% and -31.9% | % Inhibition of Control Values (panel of human enzymes; HDAC6 (h)): -14.7% and -18.7% and -10.7% | % Inhibition of Control Values (panel of human enzymes; HDAC11 (h)): 36.9% and 32.5% and 41.3% | % Inhibition of Control Values (panel of human enzymes; MAO-A (h)): 1.7% and -0.1% and 3.5% | % Inhibition of Control Values (panel of human enzymes; MAO-B (h) recombinant enzyme): -1.9% | % Inhibition of Control Values (panel of human enzymes; PDE1B (h)): 0.9% and -2.7% and 4.5% | % Inhibition of Control Values (panel of human enzymes; PDE2A1 (h)): -1% and -4.3% and 2.3% | % Inhibition of Control Values (panel of human enzymes; PDE3A (h)): 1.1% and -1.7% and 3.9% | % Inhibition of Control Values (panel of human enzymes; PDE5 (h) (non-selective)): -3.55% and -4.2% and -2.9% | % Inhibition of Control Values (panel of human enzymes; acetylcholinesterase (h)): 5.45% and 8.7% and 2.2% | % Inhibition of Control Values (panel of human enzymes; phosphatase 1B (h) (PTP1B)): 10.8% and 11.2% and 10.4% | % Inhibition of Control Values (panel of human enzymes; phosphatase CDC25A (h)): -0.35% and -5% and 4.3% | % Inhibition of Control Values (panel of human enzymes; sirtuin 1 (h) (inhibitor effect)): -1.45% and -1.9% and -1% | % Inhibition of Control Values (panel of human enzymes; tyrosine hydroxylase): -0.5% and 2.4% and -3.4% | IC50 (hERG channel): > 10 µM | HepG2 viability assay, normalised to controls (HepG2 cells; log concentration (M) -5): 96% and 104% | HepG2 viability assay, raw signal (HepG2 cells; log concentration (M) -5): 10734 and 11536 | HepG2 viability assay, normalised to controls (HepG2 cells; log concentration (M) -5.5): 103% and 105% | HepG2 viability assay, raw signal (HepG2 cells; log concentration (M) -5.5): 11483 and 11722 | HepG2 viability assay, normalised to controls (HepG2 cells; log concentration (M) -6): 105% and 100% | HepG2 viability assay, raw signal (HepG2 cells; log concentration (M) -6): 11668 and 11173 | HepG2 viability assay, normalised to controls (HepG2 cells; log concentration (M) -6.5): 103% and 102% | HepG2 viability assay, raw signal (HepG2 cells; log concentration (M) -6.5): 11442 and 11328 | HepG2 viability assay, normalised to controls (HepG2 cells; log concentration (M) -7): 100% and 101% | HepG2 viability assay, raw signal (HepG2 cells; log concentration (M) -7): 11114 and 11207 | HepG2 viability assay, normalised to controls (HepG2 cells; log concentration (M) -7.5): 104% and 107% | HepG2 viability assay, raw signal (HepG2 cells; log concentration (M) -7.5): 11575 and 11909 | HepG2 viability assay, normalised to controls (HepG2 cells; log concentration (M) -8): 105% and 102% | HepG2 viability assay, raw signal (HepG2 cells; log concentration (M) -8): 11700 and 11315 | HepG2 viability assay, normalised to controls (HepG2 cells; log concentration (M) -8.5): 105% and 101% | HepG2 viability assay, raw signal (HepG2 cells; log concentration (M) -8.5): 11684 and 11300 | HepG2 viability assay, normalised to controls (HepG2 cells; log concentration (M) -9): 109% | HepG2 viability assay, raw signal (HepG2 cells; log concentration (M) -9): 12138 and 12106 | IC50 (HepG2 cells; read-out: IC50 viability, HepG2): > 10 µM | B:P [3]: 0.97 | plasma protein binding [4]: 52%
